Entries after “also recorded” stand apart in the source; their conditions may differ.
How the values were obtained:
ischemic brain = experiment: Oral administration of ginsenoside Rb1 per se, neuroprotective action; format: in vivo
[1] = tested on: SH-SP rats with MCA permanent occlusion; experiment: Cerebral infarct lesion and brain edema after ginsenoside Rb1 (intravenous or intracerebroventricular); format: in vivo, rat; conditions: intravenous 6 μg/day for 28 days after MCA permanent occlusion
Protocol: Male SH-SP rats, at the age of 12-13 weeks, were used. Animals were bred in a room furnished with 12 hours light and dark cycles and water and feeds were supplied ad libitum. The cortical branch of the left middle cerebral artery (MCA) of SH-SP rats were coagulated and cut under inhalation anesthesia. Immediately after MCA permanent occlusion, ginsenoside Rb1 dissolved in physiological saline was infused once intravenously (6 μg or 60 μg), subsequently intravenously infused continuously for 28 days by using an Alza osmotic minipump (6 μg/day or 60 μg/day).
At 32 days after MCA permanent occlusion, the SH-SP rats were anesthetized with chloral hydrate, and they were perfused and fixed transcardially with 0.1 mole phosphate buffer containing 4% paraformaldehyde. The brains were dissected out and cerebrocortical infarct lesions were photographed.
In Japanese Patent Application No. Hei 10-365560, PCT/JP99/02550 (Brain cell or nerve cell-protective agents comprising ginsenoside Rb1), Japanese Patent Application No. Hei 11-340850, PCT/JP99/06804 (Cerebrovascular regeneration/reconstruction promoters and nerve tissue secondary degeneration inhibitors comprising ginsenoside Rb1), the present inventors (Sakanaka and Tanaka) measured areas of the left cerebral hemispheres and the left cerebrocortical infarct lesions on the photographs by using an image analyzer. […]

[2] = low concentrations or low doses; cited from earlier work
[3] = Observation of animals for ill or adverse effects; format: in vivo; conditions: present experiments
Bcl-xL = Bcl-xL expression in primary cultured myocardial cells (RT-PCR, immunoblotting); format: cell-based, rat
Protocol: Next, we have studied effect of ginsenoside Rb1 on the heart. For that purpose, for example, changes in the expression of Bcl-xL mRNA and Bcl-xL protein were examined with RT-PCR and immunoblotting, when primary cultured myocardial cells were cultured for 18 hours in the presence of ginsenoside Rb1. Myocardial cells were prepared as follows. The hearts of fetal rats at gestational day 17 were treated with trypsin EDTA to prepare dispersed cells, which were cultured for several days in DMEM containing 10% FCS (fetal calf serum). In RT-PCR, β-actin mRNA was used as the internal standard. In the immunoblotting, troponin T, a striated muscle-specific protein, was used as the internal standard, and expression of Bcl-xL protein was examined. In the immunoblotting, the same experiments were repeated 10 times by using different lots of myocardial cells, and Bcl-xL immunoreaction-positive bands were analyzed by densitometry and statistical analysis was performed.
Subsequently we studied the effectiveness of ginsenoside Rb1 on heart. For that purpose, for example, changes in the expressions of Bcl-xL mRNA and Bcl-xL protein were examined with the use of RT-PCR and immunoblotting, when the primary cultured myocardial cells were cultured for 18 hours in the presence of ginsenoside Rb1. Myocardial cells were prepared as follows. The hearts of fetal rats at gestational day 17 were treated with trypsin EDTA to prepare the dispersed cells, which were cultured for several days in DMEM containing 10% FCS (fetal calf serum). In RT-PCR, β-actin mRNA was used as the internal standard. In the immunoblotting, troponin T, a striated muscle-specific protein, was used as the internal standard, and expression of Bcl-xL protein was examined. In the immunoblotting, the same experiments were repeated 10 times by using different lots of myocardial cells, and Bcl-xL immunoreaction-positive bands were analyzed by densitometry and statistical analysis was performed.

[4] = intracerebroventricular administration; cited from earlier work

For `CC(C)=CCC[C@](C)(O[C@@H]1O[C@H](CO[C@@H]2O[C@H](CO)[C@@H](O)[C@H](O)[C@H]2O)[C@@H](O)[C@H](O)[C@H]1O)[C@H]1CC[C@]2(C)[C@@H]1[C@H](O)C[C@@H]1[C@@]3(C)CC[C@H](O[C@@H]4O[C@H](CO)[C@@H](O)[C@H](O)[C@H]4O[C@@H]4O[C@H](CO)[C@@H](O)[C@H](O)[C@H]4O)C(C)(C)[C@@H]3CC[C@]12C` [ginsenoside Rb1], the “neuroprotective action / protective action on the ischemic brain” value (ischemic brain) was “did not show protective effects; also recorded: did not exhibit neuroprotective action; also recorded: did not exhibit any protective action”, the “difference in size between left and right cerebral hemisphere (brain edema)” value [1] was “no difference in size” and the “cerebral infarct lesions (photographs at 32 days)” value ([1]; all 8 cases) was “obviously reduced”. The bleeding tendency [2] was “does not promote”, the “ill / adverse effects on careful observation of animals” value [3] was “No adverse effect was detected” and the “expression of Bcl-xL protein in myocardial cells” value (Bcl-xL; 1 fg/ml to 10^4 fg/ml, 18 hours, n=10) was “significantly enhanced”. The “expression of Bcl-xL mRNA in myocardial cells” value (Bcl-xL; 1 fg/ml-100 fg/ml, 18 hours) was “obviously increased”, the “concentrations increasing Bcl-xL mRNA in myocardial cells” value (Bcl-xL; FIG. 25) was 1 to 100 fg/mL and the “brain temperature, cerebral blood flow or blood pressure” value [4] was “no effects”.

Reference: patent US7235267B1, “Brain cell or nerve cell-protecting agents comprising medicinal ginseng” (priority 1999, dated 2007)
